Results reported in patent publication US12077503B2, “Substituted cyclic amides and their use as herbicides” (FMC CORPORATION, priority 2015, dated 2024).

Columns and labels:
Assay in all cases: Test D preemergence
Format in all cases: in vivo
Details in all cases: scale 0 to 100
[1] = system: Galium (catchweed bedstraw, Galium aparine)
Text: (§1) Seeds of plant species selected from bluegrass (annual bluegrass, Poa annua), blackgrass (Alopecurus myosuroides), canarygrass (littleseed canarygrass, Phalaris minor), chickweed (common chickweed, Stellaria media), Galium (catchweed bedstraw, Galium aparine), bromegrass, downy (downy bromegrass, Bromus tectorum), field poppy (Papaver rhoeas), field violet (Viola arvensis), foxtail, green (green foxtail, Setaria viridis), deadnettle (henbit deadnettle, Lamium amplexicaule), ryegrass, Italian (Italian ryegrass, Lolium multiflorum), Kochia (Kochia scoparia), lambsquarters (Chenopodium album), oilseed rape (Brassica napus), pigweed (Amaranthus retroflexus), chamomile (scentless chamomile, Matricaria inodora), Russian thistle (Salsola kali), speedwell (bird's-eye speedwell, Veronica persica), barley, spring (spring barley, Hordeum vulgare), wheat, spring (spring wheat, Triticum aestivum), buckwheat, wild (wild buckwheat, Polygonum convolvulus), mustard, wild (wild mustard, Sinapis arvensis), oat, wild (wild oat, Avena fatua), radish, wild (wild radish, Raphanus raphanistrum), windgrass (Apera spica-venti), barley, winter (winter barley Hordeum vulgare), and wheat, winter (winter wheat, Triticum aestivum) were planted into a silt loam soil and treated preemergence with test chemicals formulated in a non-phytotoxic solvent mixture which included a surfactant.
(§2) Treated plants and controls were maintained in a controlled growth environment approximately 21 d after which time all species were compared to controls and visually evaluated. Plant response ratings, summarized in Table D, are based on a scale of 0 to 100 where 0 is no effect and 100 is complete control. A dash (-) response means no test result.

[2] = system: Russian thistle (Salsola kali)
Text: as §1, §2

[3] = system: barley, spring (spring barley, Hordeum vulgare)
Text: as §1, §2

[4] = system: barley, winter (winter barley Hordeum vulgare)
Text: as §1, §2

[5] = system: blackgrass (Alopecurus myosuroides)
Text: as §1, §2

[6] = system: bluegrass (annual bluegrass, Poa annua)
Text: as §1, §2

[7] = system: bromegrass, downy (downy bromegrass, Bromus tectorum)
Text: as §1, §2

[8] = system: canarygrass (littleseed canarygrass, Phalaris minor)
Text: as §1, §2

[9] = system: chamomile (scentless chamomile, Matricaria inodora)
Text: as §1, §2

[10] = system: chickweed (common chickweed, Stellaria media)
Text: as §1, §2

[11] = system: deadnettle (henbit deadnettle, Lamium amplexicaule)
Text: as §1, §2

[12] = system: field poppy (Papaver rhoeas)
Text: as §1, §2

[13] = system: foxtail, green (green foxtail, Setaria viridis)
Text: as §1, §2

[14] = system: lambsquarters (Chenopodium album)
Text: as §1, §2

[15] = system: mustard, wild (wild mustard, Sinapis arvensis)
Text: as §1, §2

[16] = system: oat, wild (wild oat, Avena fatua)
Text: as §1, §2

[17] = system: oilseed rape (Brassica napus)
Text: as §1, §2

[18] = system: pigweed (Amaranthus retroflexus)
Text: as §1, §2

[19] = system: radish, wild (wild radish, Raphanus raphanistrum)
Text: as §1, §2

[20] = system: ryegrass, Italian (Italian ryegrass, Lolium multiflorum)
Text: as §1, §2

[21] = system: wheat, spring (spring wheat, Triticum aestivum)
Text: as §1, §2

[22] = system: wheat, winter (winter wheat, Triticum aestivum)
Text: as §1, §2

CN1CC(c2cccc(C(F)(F)F)c2)C(C(=O)Nc2cccc(F)c2F)C1=O (stereo not drawn) [Compound 636]
10: Plant response rating: Bromegrass, Downy ([7]; 31 g ai/ha) | Plant response rating: Oilseed Rape ([17]; 31 g ai/ha) | Plant response rating: Pigweed ([18]; 62 g ai/ha)
95: Plant response rating: Bluegrass ([6]; 62 g ai/ha) | Plant response rating: Canarygrass ([8]; 250 g ai/ha) | Plant response rating: Field Poppy ([12]; 62 g ai/ha)
0: Plant response rating: Galium ([1]; 31 g ai/ha) | Plant response rating: Russian Thistle ([2]; 31 g ai/ha) | Plant response rating: Deadnettle ([11]; 31 g ai/ha) | Plant response rating: Mustard, Wild ([15]; 31 g ai/ha) | Plant response rating: Pigweed ([18]; 31 g ai/ha)
55: Plant response rating: Barley, Spring ([3]; 62 g ai/ha) | Plant response rating: Barley, Winter ([4]; 125 g ai/ha) | Plant response rating: Bromegrass, Downy ([7]; 125 g ai/ha)
100: Plant response rating: Bluegrass ([6]; 250 g ai/ha) | Plant response rating: Chamomile ([9]; 62 g ai/ha) | Plant response rating: Chamomile ([9]; 125 g ai/ha) | Plant response rating: Chamomile ([9]; 250 g ai/ha) | Plant response rating: Field Poppy ([12]; 125 g ai/ha) | Plant response rating: Field Poppy ([12]; 250 g ai/ha) | Plant response rating: Foxtail, Green ([13]; 31 g ai/ha) | Plant response rating: Foxtail, Green ([13]; 62 g ai/ha) | Plant response rating: Foxtail, Green ([13]; 125 g ai/ha) | Plant response rating: Foxtail, Green ([13]; 250 g ai/ha) | Plant response rating: Radish, Wild ([19]; 250 g ai/ha)
65: Plant response rating: Canarygrass ([8]; 31 g ai/ha) | Plant response rating: Oilseed Rape ([17]; 250 g ai/ha) | Plant response rating: Radish, Wild ([19]; 125 g ai/ha) | Plant response rating: Ryegrass, Italian ([20]; 125 g ai/ha) | Plant response rating: Wheat, Winter ([22]; 250 g ai/ha)
80: Plant response rating: Barley, Winter ([4]; 250 g ai/ha) | Plant response rating: Bromegrass, Downy ([7]; 250 g ai/ha) | Plant response rating: Lambsquarters ([14]; 125 g ai/ha) | Plant response rating: Oat, Wild ([16]; 125 g ai/ha) | Plant response rating: Ryegrass, Italian ([20]; 250 g ai/ha) | Plant response rating: Wheat, Spring ([21]; 250 g ai/ha)
70: Plant response rating: Deadnettle ([11]; 125 g ai/ha) | Plant response rating: Lambsquarters ([14]; 62 g ai/ha) | Plant response rating: Wheat, Winter ([22]; 125 g ai/ha)
90: Plant response rating: Bluegrass ([6]; 125 g ai/ha) | Plant response rating: Canarygrass ([8]; 125 g ai/ha) | Plant response rating: Chamomile ([9]; 31 g ai/ha) | Plant response rating: Chickweed ([10]; 125 g ai/ha) | Plant response rating: Chickweed ([10]; 250 g ai/ha) | Plant response rating: Field Poppy ([12]; 31 g ai/ha) | Plant response rating: Lambsquarters ([14]; 250 g ai/ha)
25: Plant response rating: Blackgrass ([5]; 31 g ai/ha) | Plant response rating: Radish, Wild ([19]; 62 g ai/ha)
30: Plant response rating: Galium ([1]; 125 g ai/ha) | Plant response rating: Blackgrass ([5]; 62 g ai/ha) | Plant response rating: Oat, Wild ([16]; 62 g ai/ha) | Plant response rating: Oilseed Rape ([17]; 62 g ai/ha)
50: Plant response rating: Russian Thistle ([2]; 125 g ai/ha) | Plant response rating: Pigweed ([18]; 125 g ai/ha)
85: Plant response rating: Canarygrass ([8]; 62 g ai/ha) | Plant response rating: Chickweed ([10]; 31 g ai/ha) | Plant response rating: Chickweed ([10]; 62 g ai/ha) | Plant response rating: Mustard, Wild ([15]; 250 g ai/ha) | Plant response rating: Oat, Wild ([16]; 250 g ai/ha) | Plant response rating: Pigweed ([18]; 250 g ai/ha)
20: Plant response rating: Bromegrass, Downy ([7]; 62 g ai/ha) | Plant response rating: Wheat, Spring ([21]; 31 g ai/ha)
60: Plant response rating: Galium ([1]; 250 g ai/ha) | Plant response rating: Russian Thistle ([2]; 250 g ai/ha) | Plant response rating: Barley, Spring ([3]; 125 g ai/ha) | Plant response rating: Blackgrass ([5]; 125 g ai/ha) | Plant response rating: Oilseed Rape ([17]; 125 g ai/ha) | Plant response rating: Wheat, Winter ([22]; 62 g ai/ha)
45: Plant response rating: Barley, Winter ([4]; 62 g ai/ha) | Plant response rating: Wheat, Spring ([21]; 125 g ai/ha)
35: Plant response rating: Barley, Spring ([3]; 31 g ai/ha) | Plant response rating: Bluegrass ([6]; 31 g ai/ha) | Plant response rating: Deadnettle ([11]; 62 g ai/ha) | Plant response rating: Lambsquarters ([14]; 31 g ai/ha)
75: Plant response rating: Barley, Spring ([3]; 250 g ai/ha) | Plant response rating: Blackgrass ([5]; 250 g ai/ha) | Plant response rating: Deadnettle ([11]; 250 g ai/ha)
40: Plant response rating: Russian Thistle ([2]; 62 g ai/ha) | Plant response rating: Ryegrass, Italian ([20]; 62 g ai/ha) | Plant response rating: Wheat, Spring ([21]; 62 g ai/ha)
5: Plant response rating: Barley, Winter ([4]; 31 g ai/ha) | Plant response rating: Oat, Wild ([16]; 31 g ai/ha) | Plant response rating: Wheat, Winter ([22]; 31 g ai/ha)
15: Plant response rating: Galium ([1]; 62 g ai/ha) | Plant response rating: Mustard, Wild ([15]; 62 g ai/ha) | Plant response rating: Mustard, Wild ([15]; 125 g ai/ha) | Plant response rating: Ryegrass, Italian ([20]; 31 g ai/ha)
